{
  "source": "patent US20150005269A1",
  "about": "“Treatment of Heart Failure and Sudden Cardiac Death” (Rhode Island Hospital, priority 2012, published 2015)",
  "test_system": "SERCA2",
  "assay": "SERCA2 protein level by Western blot in cultured neonatal rabbit ventricular cardiomyocytes",
  "format": "cell-based",
  "conditions": "cultured neonatal rabbit ventricular cardiomyocytes (NRbVCM), 50 nM RU486 for 48 hours, normalized against GAPDH",
  "experimental": "Protein level of SERCA2 was analyzed by western blots. All measurements were normalized against GAPDH. Bar graphs represent the averages of three independent experiments plus S.D. in arbitrary unit. * p<0.05. […] Ventricular cardiomyocytes were isolated in neonatal wild type NZW rabbits (3-5 days old, 70-110 g) with enzymatic techniques. The hearts were removed from euthanized rabbits and perfused for 5 to 7 minutes with a free solution containing 140 mM NaCl, 4.4 mM KCl, 1.5 mM MgCl2, 0.33 mM NaH2PO4, 16 mM taurine, 5 mM HEPES, 5 mM pyruvic acid, and 7.5 mM glucose. Subsequently, the hearts were perfused for 10 to 15 minutes with the same solution to which 0.3 mg/ml collagenase was added. The whole ventricles were cut off and minced, and the cells were dispersed in a solution containing 45 mM KCl, 65 mM K-glutamate, 3 mM MgSO4, 15 mM KH2PO4, 16 mM taurine, 10 mM HEPES, 0.5 mM EDTA, and 10 mM glucose (pH 7.3). The cell suspension was filtered through a 100-pm cell strainer and kept at room temperature for one hour. Thereafter, the cells were gradually recovered with MEM, in which Ca^2+ concentration was increased from 100 μM, 500 μM, 1000 μM and 1800 μM. Every well of six-well plate was seed one million cells, cultured in DMEM (Lonza 12-[MUT],) with 7% FBS and 100 μM of BrdU. Medium was changed every 24 to 48 hours. […] The SERCA2 is detected by anti-SERCA2 antibody. […]",
  "data": [
    {"smiles": "CC#C[C@]1(O)CC[C@H]2[C@@H]3CCC4=CC(=O)CCC4=C3[C@@H](c3ccc(N(C)C)cc3)C[C@@]21C", "note": "[RU486, Mifepristone]", "values": [
      {"measurement": "increase of the expression of SERCA2 polypeptides", "value": 60, "unit": "%"}
    ]}
  ]
}
